Results from patent US12264156B2, “Compounds and pharmaceutical compositions thereof for the treatment of diseases” (GALAPAGOS NV, priority 2018, dated 2025).
Where two headings read alike, the source gives them in different places.

Columns and labels:
[1] = test system: LPS-induced TNFα in monocyte-derived macrophages (MdM); assay: MdM assay: LPS-triggered TNFα (ELISA); format: cell-based, human; details: monocyte-derived macrophages, LPS 200 ng/mL, supernatant after 20 h, read-out: TNFα EC50
In short: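 Compound added 1 h before LPS (200 ng/mL final) to day-10 macrophages derived from magnetically isolated CD14+ human blood monocytes, DMSO held at 0.2%. TNFα secreted over 20 h of stimulation quantified by ELISA against a standard curve.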

[2] = biological target: T1, SIK1 (Homo sapiens, UniProt P57059); assay: ADP-Glo kinase assay, SIK1; format: biochemical; details: ADP-Glo SIK kinase assay
T1 construct: purchased Carna Biosciences 02-131
In short: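 Enzyme–substrate mix was started with ATP and incubated 120 min at RT. ADP formed was quantified by ADP-Glo: 40 min ATP depletion, then 30 min detection reagent converting ADP to ATP for luciferase luminescence, which rises with kinase activity. Controls: 1% DMSO and 10 μM staurosporine (final).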

T1 sequence (P57059 whole entry): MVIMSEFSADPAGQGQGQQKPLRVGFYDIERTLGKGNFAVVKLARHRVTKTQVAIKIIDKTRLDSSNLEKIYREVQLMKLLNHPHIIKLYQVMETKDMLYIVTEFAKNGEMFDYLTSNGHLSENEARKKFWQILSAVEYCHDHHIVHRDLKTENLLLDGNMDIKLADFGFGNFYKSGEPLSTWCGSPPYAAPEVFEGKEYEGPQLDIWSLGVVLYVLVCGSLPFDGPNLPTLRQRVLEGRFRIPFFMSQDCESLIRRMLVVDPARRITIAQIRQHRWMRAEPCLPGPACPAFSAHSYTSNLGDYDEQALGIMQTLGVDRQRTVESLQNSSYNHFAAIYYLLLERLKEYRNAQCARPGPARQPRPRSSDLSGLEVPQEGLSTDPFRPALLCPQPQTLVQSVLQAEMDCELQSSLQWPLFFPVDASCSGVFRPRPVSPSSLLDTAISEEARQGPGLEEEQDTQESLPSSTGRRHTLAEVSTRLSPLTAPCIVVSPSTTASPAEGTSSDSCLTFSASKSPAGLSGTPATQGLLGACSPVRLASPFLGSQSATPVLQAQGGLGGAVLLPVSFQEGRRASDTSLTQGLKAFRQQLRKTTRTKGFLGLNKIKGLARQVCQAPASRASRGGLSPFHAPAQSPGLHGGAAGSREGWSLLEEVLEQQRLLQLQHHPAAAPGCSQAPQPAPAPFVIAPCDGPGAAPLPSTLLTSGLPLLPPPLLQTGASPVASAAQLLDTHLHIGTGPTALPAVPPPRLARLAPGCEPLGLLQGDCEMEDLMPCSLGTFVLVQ

COc1cc(-c2cnc3cc(OCCN4CCN(C(C)C)CC4)ccn23)cc(OC(F)F)c1C(=O)NC1CC1 [compound 276, N-cyclopropyl-2-(difluoromethoxy)-4-[7-[2-(4-isopropylpiperazin-1-yl)ethoxy]imidazo[1,2-a]pyridin-3-yl]-6-methoxy-benzamide]
EC50 ([1]; Homo sapiens, Macrophage, 20 h): 100 to 1000 nM
IC50 [2]: 10 to 100 nM

COc1cc(-c2cnc3cc(OCC(O)CN4CCOCC4)ccn23)cc(OC(F)F)c1C(=O)NC1CC1 (single isomer, unassigned) [Cpd 386, N-cyclopropyl-2-(difluoromethoxy)-4-[7-(2-hydroxy-3-morpholino-propoxy)imidazo[1,2-a]pyridin-3-yl]-6-methoxy-benzamide]
EC50 [1]: 100 to 1000 nM
IC50 [2]: 10 to 100 nM

CCNCCOc1ccn2c(-c3cc(OC)c(C(=O)NC4CC4)c(OC(F)F)c3)cnc2c1 [compound 37, N-cyclopropyl-2-(difluoromethoxy)-4-[7-[2-(ethylamino)ethoxy]imidazo[1,2-a]pyridin-3-yl]-6-methoxy-benzamide]
EC50 ([1]; Homo sapiens, Macrophage, 20 h): 100 to 1000 nM
IC50 [2]: 10 to 100 nM

COc1cc(-c2cnc3cc(OCCN4CCOC[C@H]4C)ccn23)cc(OC(F)F)c1C(=O)NC1CC1 [compound 234, N-cyclopropyl-2-(difluoromethoxy)-6-methoxy-4-[7-[2-[(3R)-3-methylmorpholin-4-yl]ethoxy]imidazo[1,2-a]pyridin-3-yl]benzamide]
EC50 ([1]; Homo sapiens, Macrophage, 20 h): 100 to 1000 nM
IC50 [2]: 10 to 100 nM

COc1cc(-c2cnc3cc(OCCCN4CCNCC4)ccn23)cc(OC(F)F)c1C(=O)NC1CC1 [compound 278, N-cyclopropyl-2-(difluoromethoxy)-6-methoxy-4-[7-(3-piperazin-1-ylpropoxy)imidazo[1,2-a]pyridin-3-yl]benzamide]
EC50 ([1]; Homo sapiens, Macrophage, 20 h): 1000 to 5000 nM
IC50 [2]: 0.01 to 10 nM

COc1cc(-c2cnc3cc(OCc4cnco4)ccn23)cc2c1C(=O)N(CC(F)(F)F)CC2 [compound 126, 8-methoxy-6-[7-(oxazol-5-ylmethoxy)imidazo[1,2-a]pyridin-3-yl]-2-(2,2,2-trifluoroethyl)-3,4-dihydroisoquinolin-1-one]
EC50 ([1]; Homo sapiens, Macrophage, 20 h): 100 to 1000 nM
IC50 [2]: 100 to 500 nM

COc1cc(-c2cnc3cc(OCCC4CCCN4C)ccn23)cc2c1C(=O)N(CC(F)(F)F)CC2 (stereo not drawn) [Cpd 122, 8-methoxy-6-[7-[2-(1-methylpyrrolidin-2-yl)ethoxy]imidazo[1,2-a]pyridin-3-yl]-2-(2,2,2-trifluoroethyl)-3,4-dihydroisoquinolin-1-one]
EC50 ([1]; Homo sapiens, Macrophage, 20 h): 100 to 1000 nM
IC50 [2]: 100 to 500 nM

COc1cc(-c2cnc3cc(OCCCN4CCC5(CC4)CN(C)C(=O)O5)ccn23)cc(OC(F)F)c1C(=O)NC1CC1 [compound 325, N-cyclopropyl-2-(difluoromethoxy)-6-methoxy-4-[7-[3-(3-methyl-2-oxo-1-oxa-3,8-diazaspiro[4.5]decan-8-yl)propoxy]imidazo[1,2-a]pyridin-3-yl]benzamide]
EC50 ([1]; Homo sapiens, Macrophage, 20 h): 0.1 to 100 nM
IC50 [2]: 10 to 100 nM

COc1cc(-c2cnc3cc(OCCN4CCOCC4)ccn23)cc2c1C(=O)N(CC(F)F)CC2 [compound 218, 2-(2,2-difluoroethyl)-8-methoxy-6-[7-(2-morpholinoethoxy)imidazo [1,2-a]pyridin-3-yl]-3,4-dihydroisoquinolin-1-one]
EC50 ([1]; Homo sapiens, Macrophage, 20 h): 100 to 1000 nM
IC50 [2]: 100 to 500 nM

COc1cc(-c2cnc3cc(OCCN4CCOC[C@@H]4C)ccn23)cc2c1C(=O)N(CC(F)(F)F)CC2 [Cpd 257, 8-methoxy-6-[7-[2-[(3S)-3-methylmorpholin-4-yl]ethoxy]imidazo[1,2-a]pyridin-3-yl]-2-(2,2,2-trifluoroethyl)-3,4-dihydroisoquinolin-1-one]
EC50 ([1]; Homo sapiens, Macrophage, 20 h): 100 to 1000 nM
IC50 [2]: 100 to 500 nM

COc1cc(-c2cnc3cc(OCCN4CCCCC4)ccn23)cc2c1C(=O)N(CC(F)(F)F)CC2 [compound 40, 8-methoxy-6-[7-[2-(1-piperidyl)ethoxy]imidazo [1,2-a]pyridin-3-yl]-2-(2,2,2-trifluoroethyl)-3,4-dihydroisoquinolin-1-one]
EC50 ([1]; Homo sapiens, Macrophage, 20 h): 100 to 1000 nM
IC50 [2]: > 500 nM

COc1cc(-c2cnc3cc(OCC4CN(C)CCO4)ccn23)cc2c1C(=O)N(CC(F)(F)F)CC2 (stereo not drawn) [compound 127, 8-methoxy-6-[7-[(4-methylmorpholin-2-yl)methoxy]imidazo[1,2-a]pyridin-3-yl]-2-(2,2,2-trifluoroethyl)-3,4-dihydroisoquinolin-1-one]
EC50 ([1]; Homo sapiens, Macrophage, 20 h): 100 to 1000 nM
IC50 [2]: 100 to 500 nM

COc1cc(-c2cnc3cc(OC[C@H]4COCCO4)ccn23)cc2c1C(=O)N(CC(F)(F)F)CC2 [Cpd 86, 6-[7-[[(2R)-1,4-dioxan-2-yl]methoxy]imidazo[1,2-a]pyridin-3-yl]-8-methoxy-2-(2,2,2-trifluoroethyl)-3,4-dihydroisoquinolin-1-one]
EC50 ([1]; Homo sapiens, Macrophage, 20 h): 100 to 1000 nM
IC50 [2]: 100 to 500 nM

COc1cc(-c2cnc3cc(OCCN(C)C)ccn23)cc2c1C(=O)N(CC(F)F)CC2 [compound 54, 2-(2,2-difluoroethyl)-6-[7-[2-(dimethylamino)ethoxy]imidazo [1,2-a]pyridin-3-yl]-8-methoxy-3,4-dihydro isoquinolin-1-one]
EC50 ([1]; Homo sapiens, Macrophage, 20 h): 100 to 1000 nM
IC50 [2]: > 500 nM

COc1cc(-c2cnc3cc(OCC4(F)CN(C)C4)ccn23)cc2c1C(=O)N(CC(F)(F)F)CC2 [compound 252, 6-[7-[(3-fluoro-1-methyl-azetidin-3-yl)methoxy]imidazo[1,2-a]pyridin-3-yl]-8-methoxy-2-(2,2,2-trifluoroethyl)-3,4-dihydro isoquinolin-1-one]
EC50 ([1]; Homo sapiens, Macrophage, 20 h): 100 to 1000 nM
IC50 [2]: 100 to 500 nM

COc1cc(-c2cnc3cc(OC[C@H]4CCCN4C)ccn23)cc(OC(F)F)c1C(=O)NC1CC1 [compound 81, N-cyclopropyl-2-(difluoromethoxy)-6-methoxy-4-[7-[[(2R)-1-methylpyrrolidin-2-yl]methoxy]imidazo[1,2-a]pyridin-3-yl]benzamide]
EC50 ([1]; Homo sapiens, Macrophage, 20 h): 100 to 1000 nM
IC50 [2]: 100 to 500 nM

CCOC(=O)C1(F)CCN(CC(O)COc2ccn3c(-c4cc(OC)c(C(=O)NC5CC5)c(OC(F)F)c4)cnc3c2)CC1 (stereo not drawn) [compound 384, ethyl 1-[3-[3-[4-(cyclopropylcarbamoyl)-3-(difluoromethoxy)-5-methoxy-phenyl]imidazo[1,2-a]pyridin-7-yl]oxy-2-hydroxy-propyl]-4-fluoro-piperidine-4-carboxylate]
EC50 ([1]; Homo sapiens, Macrophage, 20 h): 0.1 to 100 nM
IC50 [2]: 10 to 100 nM

COc1cc(-c2cnc3cc(OCCN4CCOC[C@H]4C)ccn23)cc2c1C(=O)N(CC(F)(F)F)CC2 [compound 259, 8-methoxy-6-[7-[2-[(3R)-3-methylmorpholin-4-yl]ethoxy]imidazo[1,2-a]pyridin-3-yl]-2-(2,2,2-trifluoroethyl)-3,4-dihydroisoquinolin-1-one]
EC50 ([1]; Homo sapiens, Macrophage, 20 h): 100 to 1000 nM
IC50 [2]: 100 to 500 nM

COc1cc(-c2cnc3cc(OCC4(C)CN(C)C4)ccn23)cc(OC(F)F)c1C(=O)NC1CC1 [compound 220, N-cyclopropyl-2-(difluoromethoxy)-4-[7-[(1,3-dimethylazetidin-3-yl)methoxy]imidazo[1,2-a]pyridin-3-yl]-6-methoxy-benzamide]
EC50 ([1]; Homo sapiens, Macrophage, 20 h): 100 to 1000 nM
IC50 [2]: 10 to 100 nM

CCOC(=O)C1(F)CCN(CCOc2ccn3c(-c4cc(OC)c(C(=O)NC5CC5)c(OC(F)F)c4)cnc3c2)CC1 [compound 390, ethyl 1-[2-[3-[4-(cyclopropylcarbamoyl)-3-(difluoromethoxy)-5-methoxy-phenyl]imidazo[1,2-a]pyridin-7-yl]oxyethyl]-4-fluoro-piperidine-4-carboxylate]
EC50 ([1]; Homo sapiens, Macrophage, 20 h): 0.1 to 100 nM
IC50 [2]: 10 to 100 nM

COc1cc(-c2cnc3cc(OC[C@@H]4CN(C)CCO4)ccn23)cc2c1C(=O)N(CC(F)(F)F)CC2 [compound 191, 8-methoxy-6-[7-[[(2S)-4-methylmorpholin-2-yl]methoxy]imidazo [1,2-a]pyridin-3-yl]-2-(2,2,2-trifluoroethyl)-3,4-dihydroisoquinolin-1-one]
EC50 ([1]; Homo sapiens, Macrophage, 20 h): 100 to 1000 nM
IC50 [2]: 100 to 500 nM

COc1cc(-c2cnc3cc(OCCC4CCCN4C)ccn23)cc(OC(F)F)c1C(=O)NC1CC1 (stereo not drawn) [compound 17, N-cyclopropyl-2-(difluoromethoxy)-6-methoxy-4-[7-[2-(1-methylpyrrolidin-2-yl)ethoxy]imidazo[1,2-a]pyridin-3-yl]benzamide]
EC50 ([1]; Homo sapiens, Macrophage, 20 h): 0.1 to 100 nM
IC50 [2]: 10 to 100 nM

COc1cc(-c2cnc3cc(OCCOCCN4CCCCC4)ccn23)cc(OC(F)F)c1C(=O)NC1CC1 [compound 305]
EC50 ([1]; Homo sapiens, Macrophage, 20 h): 100 to 1000 nM
IC50 [2]: 10 to 100 nM

COc1cc(-c2cnc3cc(OC[C@H]4COCCO4)ccn23)cc2c1C(=O)N(CC(F)F)CC2 [compound 219, 2-(2,2-difluoroethyl)-6-[7-[[(2R)-1,4-dioxan-2-yl]methoxy]imidazo[1,2-a]pyridin-3-yl]-8-methoxy-3,4-dihydroisoquinolin-1-one]
EC50 ([1]; Homo sapiens, Macrophage, 20 h): 1000 to 5000 nM
IC50 [2]: 100 to 500 nM

COc1cc(-c2cnc3cc(OCCN4CC(F)(F)C4)ccn23)cc2c1C(=O)N(CC(F)(F)F)CC2 [Cpd 244, 6-[7-[2-(3,3-difluoroazetidin-1-yl)ethoxy]imidazo[1,2-a]pyridin-3-yl]-8-methoxy-2-(2,2,2-trifluoroethyl)-3,4-dihydroisoquinolin-1-one]
EC50 ([1]; Homo sapiens, Macrophage, 20 h): 100 to 1000 nM
IC50 [2]: 100 to 500 nM

COc1cc(-c2cnc3cc(OCCCN4CC(O)C4)ccn23)cc(OC(F)F)c1C(=O)NC1CC1 [Cpd 286, N-cyclopropyl-2-(difluoromethoxy)-4-[7-[3-(3-hydroxyazetidin-1-yl)propoxy]imidazo[1,2-a]pyridin-3-yl]-6-methoxy-benzamide]
EC50 ([1]; Homo sapiens, Macrophage, 20 h): 1000 to 5000 nM
IC50 [2]: 10 to 100 nM

COc1cc(-c2cnc3cc(OC(C)C(F)(F)F)ccn23)cc(OC(F)F)c1C(=O)NC1CC1 (stereo not drawn) [compound 45, N-cyclopropyl-2-(difluoromethoxy)-6-methoxy-4-[7-(2,2,2-trifluoro-1-methyl-ethoxy)imidazo[1,2-a]pyridin-3-yl]benzamide]
EC50 ([1]; Homo sapiens, Macrophage, 20 h): 100 to 1000 nM
IC50 [2]: 100 to 500 nM
